Data published in patent US20160219881A1, “HERBICIDALLY ACTIVE 2-HALOGEN-4-ALKYNYL-PHENYL-PYRAZOLIDINE-DIONE OR PYRROLIDINE-DIONE DERIVATIVES” (SYNGENTA LIMITED, priority 2013, published 2016).

Assays:
Format in all cases: in vivo
[1] = tested on: Echinochloa crus-galli (ECHCG); test: Test 1A glasshouse assay, pre-emergence herbicidal activity; details: 312 h, 250 g/ha, 13 days after application, read-out: Pre-Emergence Herbicidal Activity (% Phytotoxicity) ECHCG
Description: (§1) Seeds of a variety of test species are sown in standard soil (usually sandy soil) in pots. After cultivation for one day (pre-emergence) or after 8 days cultivation (post-emergence) under controlled conditions in a glasshouse (at 24/16° C., day/night; 14 hours light; 65% humidity), the plants are sprayed with an aqueous spray solution derived from the formulation of the technical active ingredient (compound) in acetone/water (50:50) solution containing 0.5% Tween 20 (polyoxyethylene sorbitan monolaurate, CAS RN 9005-64-5). The test plants are then grown under controlled conditions in a glasshouse (at 24/16° C., day/night; 14 hours light; 65% humidity) and watered twice daily. 13 days after application of the test compounds, for pre- and post-emergence, the test is evaluated visually for percentage phytotoxicity to each plant (where 100%=total damage to plant; 0%=no damage to plant).
(§2) Alopecurus myosuroides (ALOMY), Setaria faberi (SETFA), Echinochloa crus-galli (ECHCG), Amaranthus retroflexus (AMARE), and Abutilon theophasti Medik. (ABUTH, common English name “velvetleaf”). Of these, Alopecurus myosuroides (ALOMY), Setaria faberi (SETFA), and Echinochloa crus-galli (ECHCG) are grassy monocotyledonous weeds. […]

[2] = tested on: Echinochloa crus-galli (ECHCG); test: Test 1A glasshouse assay, post-emergence herbicidal activity; details: 312 h, 13 days after application, read-out: Post-Emergence Herbicidal Activity (% Phytotoxicity) ECHCG
Description: as §1, §2

[3] = tested on: Alopecurus myosuroides (ALOMY); test: as above; details: 312 h, 13 days after application, read-out: Post-Emergence Herbicidal Activity (% Phytotoxicity) ALOMY
Description: as §1, §2

[4] = tested on: Amaranthus retroflexus (AMARE); test: Test 1A glasshouse assay, pre-emergence herbicidal activity; details: 312 h, 250 g/ha, 13 days after application, read-out: Pre-Emergence Herbicidal Activity (% Phytotoxicity) AMARE
Description: as §1
(§3) Alopecurus myosuroides (ALOMY), Setaria faberi (SETFA), Echinochloa crus-galli (ECHCG), Amaranthus retroflexus (AMARE), and Abutilon theophasti Medik. (ABUTH, common English name “velvetleaf”). Of these, Alopecurus myosuroides (ALOMY), Setaria faberi (SETFA), and Echinochloa crus-galli (ECHCG) are grassy monocotyledonous weeds.

Setaria faberi (SETFA) [5] = test: as above; details: 312 h, 250 g/ha, 13 days after application, read-out: Pre-Emergence Herbicidal Activity (% Phytotoxicity) SET FA
Description: as §1, §3

[6] = tested on: Abutilon theophasti Medik. (ABUTH); test: as above; details: 312 h, 250 g/ha, 13 days after application, read-out: Pre-Emergence Herbicidal Activity (% Phytotoxicity) ABUTH
Description: as §1, §3

[7] = tested on: Alopecurus myosuroides (ALOMY); test: as above; details: 312 h, 250 g/ha, 13 days after application, read-out: Pre-Emergence Herbicidal Activity (% Phytotoxicity) ALOMY
Description: as §1, §3
Lolium perenne (LOLPE), Triticum aestivum (TRZAW, winter wheat), Alopecurus myosuroides (ALOMY), Echinochloa crus-galli (ECHCG), and Avena fatua (AVEFA). All these are grassy monocotyledonous weeds and/or (for wheat) grassy crops.

[8] = tested on: Amaranthus retroflexus (AMARE); test: Test 1A glasshouse assay, post-emergence herbicidal activity; details: 312 h, 13 days after application, read-out: Post-Emergence Herbicidal Activity (% Phytotoxicity) AMARE
Description: as §1, §3

Setaria faberi (SETFA) [9] = test: as above; details: 312 h, 13 days after application, read-out: Post-Emergence Herbicidal Activity (% Phytotoxicity) SET FA
Description: as §1, §3

[10] = tested on: Abutilon theophasti Medik. (ABUTH); test: as above; details: 312 h, 13 days after application, read-out: Post-Emergence Herbicidal Activity (% Phytotoxicity) ABUTH
Description: as §1, §3

Row | Compound | inhibition at 250 g/ha [1] | inhibition at 30 g/ha [2] | inhibition at 250 g/ha [2] | inhibition at 30 g/ha [3] | inhibition at 250 g/ha [3] | inhibition at 250 g/ha [4] | inhibition at 250 g/ha (Setaria faberi (SETFA) [5]) | inhibition at 250 g/ha [6] | inhibition at 250 g/ha [7] | inhibition at 30 g/ha [8] | inhibition at 30 g/ha (Setaria faberi (SETFA) [9]) | inhibition at 250 g/ha (Setaria faberi (SETFA) [9]) | inhibition at 30 g/ha [10] | inhibition at 250 g/ha [10] | inhibition at 250 g/ha [8]
1 | CC#Cc1cc(C)c(-c2c(OC(=O)C(C)(C)C)n3n(c2=O)CCCCC3)c(C)c1 [Compound P3, [2-(2,6-dimethyl-4-prop-1-ynyl-phenyl)-1-oxo-6,7,8,9-tetrahydro-5H-pyrazolo[1,2-a]diazepin-3-yl]2,2-dimethylpropanoate] | 20% | 60% | 100% | 40% | 50% | 20% | 70% | 10% | 20% | 0% | 20% | 70% | 10% | 0% | 
2 | CC#Cc1cc(OC)c(C2C(=O)N(C)N(C)C2=O)c(OC)c1 [Compound A5] | 90% | 90% | 100% | 70% | 90% | 10% | 100% | 0% | 90% | 0% | 80% | 90% | 0% | 0% | 0%
3 | CC#Cc1cc(C)c(-c2c(OC(C)=O)n(C)n(C)c2=O)c(C)c1 [Compound P2] | 100% | 80% | 100% | 40% | 90% | 70% | 90% | 0% | 90% | 0% | 40% | 90% | 10% | 60% | 30%
4 | CC#Cc1ccc(C2C(=O)N(C)N(C)C2=O)c(C)c1 [Compound A2] | 70% |  | 90% |  | 70% | 10% | 90% |  | 80% |  |  | 80% |  | 10% | 100%
